Reference: ChEMBL document CHEMBL6182942, “Discovery of a Selective, Novel TGF-βR1 Inhibitor GFH018 for the Treatment of Solid Tumors” (J Med Chem, 2025)

Experiments:
[1] = molecular target: Mitogen-activated protein kinase 14 (Homo sapiens, UniProt Q16539); assay: Inhibition of p38alpha (unknown origin) measured after 40 mins in presence of [gamma-33P]ATP by microbeta liquid scintillation counting analysis; assay type: toxicity
TGF-beta receptor type-1 = molecular target: T1, TGF-beta receptor type-1 (Homo sapiens, UniProt P36897); assay: Inhibition of TGFbetaR1 (unknown origin) in presence of ATP
T1 sequence (P36897 whole entry): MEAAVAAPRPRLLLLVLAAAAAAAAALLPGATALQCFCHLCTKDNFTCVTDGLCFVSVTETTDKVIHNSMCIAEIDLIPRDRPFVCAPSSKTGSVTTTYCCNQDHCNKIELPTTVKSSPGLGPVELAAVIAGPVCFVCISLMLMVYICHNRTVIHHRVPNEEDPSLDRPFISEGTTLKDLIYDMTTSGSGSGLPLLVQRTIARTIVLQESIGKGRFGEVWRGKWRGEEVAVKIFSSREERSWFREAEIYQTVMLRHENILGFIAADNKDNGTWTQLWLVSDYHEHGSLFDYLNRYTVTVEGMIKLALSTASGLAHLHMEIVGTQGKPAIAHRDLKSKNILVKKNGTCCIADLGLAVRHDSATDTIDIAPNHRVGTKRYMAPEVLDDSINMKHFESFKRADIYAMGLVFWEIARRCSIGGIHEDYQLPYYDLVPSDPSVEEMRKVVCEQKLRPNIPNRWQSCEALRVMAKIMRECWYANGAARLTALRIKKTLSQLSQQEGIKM

Homo sapiens = species on record: Homo sapiens; assay: Selectivity ratio of IC50 for p38alpha (unknown origin) to IC50 for TGFbetaR1 (unknown origin)
MDR1 = assay: Efflux ratio of apparent permeability in dog MDCK-MDR1 cells at 2 uM measured over 150 mins by LC-MS/MS analysis; assay type: ADME, cell-based, Canis lupus familiaris
[2] = Apparent permeability across apical to basolateral side in dog MDCK-MDR1 cells at 2 uM measured over 150 mins by LC-MS/MS analysis; assay type: ADME, cell-based, Canis lupus familiaris
[3] = Metabolic stability in human liver microsomes assessed as parent compound remaining at 1 uM preincubated for 5 mins followed by NADPH addition by LC-MS/MS analysis; assay type: ADME, Microsome; conditions: read-out: Stability
[4] = Metabolic stability in mouse liver microsomes assessed as parent compound remaining at 1 uM preincubated for 5 mins followed by NADPH addition by LC-MS/MS analysis; assay type: ADME, Microsome; conditions: read-out: Stability
NIH3T3 = assay: Antiproliferative activity against mouse NIH/3T3 cells by celltitter-glo assay; assay type: functional, cell-based
[5] = AUC (0 to last) in CD-1 mouse at 5 mg/kg, po via gavage by LC-MS/MS analysis; assay type: ADME, organism-based; conditions: in vivo
[6] = Clearance in CD-1 mouse at 1 mg/kg, iv by LC-MS/MS analysis; assay type: ADME, organism-based; conditions: in vivo
[7] = Half life in CD-1 mouse at 5 mg/kg, po via gavage by LC-MS/MS analysis; assay type: ADME, organism-based; conditions: in vivo
[8] = Half life in CD-1 mouse at 1 mg/kg, iv by LC-MS/MS analysis; assay type: ADME, organism-based; conditions: in vivo
[9] = Oral bioavailability in CD-1 mouse at 5 mg/kg via gavage by LC-MS/MS analysis; assay type: ADME, organism-based; conditions: in vivo
[10] = Volume of distribution at steady state in CD-1 mouse at 1 mg/kg, iv by LC-MS/MS analysis; assay type: ADME, organism-based; conditions: in vivo, read-out: Vdss
[11] = Cmax in CD-1 mouse at 5 mg/kg, po via gavage by LC-MS/MS analysis; assay type: ADME, organism-based; conditions: in vivo

Mitogen-activated protein kinase 14, sequence (Q16539 whole entry): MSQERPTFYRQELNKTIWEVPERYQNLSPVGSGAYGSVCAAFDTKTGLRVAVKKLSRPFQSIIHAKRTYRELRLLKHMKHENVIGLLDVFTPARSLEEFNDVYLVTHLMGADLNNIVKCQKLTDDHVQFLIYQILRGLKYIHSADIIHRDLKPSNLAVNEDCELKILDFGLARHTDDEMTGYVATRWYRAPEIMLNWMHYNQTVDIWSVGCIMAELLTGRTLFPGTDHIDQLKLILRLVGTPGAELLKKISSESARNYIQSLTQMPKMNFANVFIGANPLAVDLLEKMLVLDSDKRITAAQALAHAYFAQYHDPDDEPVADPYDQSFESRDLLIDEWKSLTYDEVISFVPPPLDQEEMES

IC50 (TGF-beta receptor type-1) [nM]	Ratio IC50 (Homo sapiens)	SMILES	IC50 [1] [nM]	further results
281	24.6	Cc1cccc(-c2nn3c(c2-c2ccc4ncnn4c2/C=C/C(=O)NCCO)CCC3)n1	6900	
248	> 13	CNC(=O)/C=C/c1c(-c2c(-c3cccc(C)n3)nn3c2CCC3)ccc2ncnn12	> 3330	
41.2	> 80	Cc1cccc(-c2nn3c(c2-c2ccc4ncnn4c2/C=C/C(=O)NO)CCC3)n1	> 3330	efflux ratio at 2.5 h, 2 µM (MDR1): 43.4; Papp A→B at 2.5 h, 2 µM [2]: 0.15 ×10⁻⁶ cm/s; remaining at 1 µM [3]: 42.5%; remaining at 1 µM [4]: 41.6%
4290		Cc1cccc(-c2nn3c(c2-c2ccc4ncnn4c2C(N)=O)CCC3)n1		
324		CCOC(=O)/C=C/c1c(-c2c(-c3cccc(C)n3)nn3c2CCC3)ccc2ncnn12	5910	Papp A→B at 2.5 h, 2 µM [2]: 19.4 ×10⁻⁶ cm/s
276		Cc1cccc(-c2nn(C3CCCC3)cc2-c2ccc3ncnn3c2/C=C/C(N)=O)n1		
423		Cc1cccc(-c2nn(C(C)C)cc2-c2ccc3ncnn3c2/C=C/C(N)=O)n1		
420	12.8	CCc1cccc(-c2nn3c(c2-c2ccc4ncnn4c2/C=C/C(N)=O)CCC3)n1	5380	
> 5000		Cc1cccc(-c2nn3c(c2-c2ccnc4c2CN(C(N)=O)CC4)CCC3)n1		
> 5000		Cc1cccc(-c2nn3c(c2-c2cn(C)c(=O)c4ccc(C(N)=O)cc24)CCC3)n1		
365	> 27.4	Cc1cccc(-c2nn3c(c2-c2ccc4ncnn4c2CNc2cc[nH]n2)CCC3)n1	> 10000	
> 5000		Cc1cccc(-c2nn3c(c2-c2ccc(F)c4c2CN(C(N)=O)CC4)CCC3)n1		
223		Cc1cccc(-c2nn(Cc3cccc(C#N)c3)cc2-c2ccc3ncnn3c2C=CC(N)=O)n1	> 3330	IC50 (NIH3T3): 1660 nM; remaining at 1 µM [3]: 56.2%; remaining at 1 µM [4]: 9.8%
82.6	0.2	Cc1cccc(-c2nn3c(c2-c2ccnc(Nc4ccc(S(N)(=O)=O)cc4)c2)CCC3)n1	15	
312	15.2	CCNC(=O)/C=C/c1c(-c2c(-c3cccc(C)n3)nn3c2CCC3)ccc2ncnn12	4750	
1020		Cc1cccc(-c2nn3c(c2-c2ccc4nccn4c2/C=C/C(N)=O)CCC3)n1		
90.9	0.3	Cc1cccc(-c2nn3c(c2-c2ccnc(Nc4ccc(C(N)=O)cc4)c2)CCC3)n1	26	

IC50 (TGF-beta receptor type-1) [nM]	Ratio IC50 (Homo sapiens)	SMILES	IC50 [1] [nM]	further results
971		Cc1cccc(-c2nn3c(c2-c2ccc4ncccc4c2/C=C/C(N)=O)CCC3)n1		
928		Cc1cccc(-c2nn3c(c2-c2ccc4ncnn4c2CCC(N)=O)CCC3)n1		
164		Cc1cccc(-c2nn(Cc3cccc(C(F)F)c3)cc2-c2ccc3ncnn3c2/C=C/C(N)=O)n1	2050	IC50 (NIH3T3): 900 nM; remaining at 1 µM [3]: 9.5%; remaining at 1 µM [4]: 0%
> 5000		Cc1cccc(-c2nn3c(c2-c2ccnc(NC4CCN(C(N)=O)CC4)c2)CCC3)n1		
83		Cc1cccc(-c2nn3c(c2-c2ccc4ncnn4c2/C=C/C(C)(C)O)CCC3)n1	> 10000	AUClast [5]: 104 nM.hr/ml; clearance [6]: 105 mL/min/kg; half-life [7]: 50.5 min; half-life [8]: 7.74 min; efflux ratio at 2.5 h, 2 µM (MDR1): 6.12; bioavailability [9]: 5.48%; Papp A→B at 2.5 h, 2 µM [2]: 8.48 ×10⁻⁶ cm/s; Vd [10]: 0.849 L/kg; IC50 (NIH3T3): 1620 nM; Cmax [11]: 170 nM/ml; remaining at 1 µM [3]: 54.8%; remaining at 1 µM [4]: 7.8%
279	18.6	Cc1cccc(-c2nn3c(c2-c2ccc4ncnn4c2/C=C/C(=O)NC2CC2)CCC3)n1	5210	
4890		Cc1nc(-c2nn3c(c2-c2ccc4ncnn4c2/C=C/C(N)=O)CCC3)ccc1Cl		
207	2.3	Cc1cccc(-c2nn3c(c2-c2ccc4ncsc4c2/C=C/C(N)=O)CCC3)n1	476	
> 5000		Cc1cccc(-c2nn3c(c2-c2ccc4ncnn4c2CN2CC(O)C2)CCC3)n1		
> 5000		Cc1cccc(-c2nn3c(c2-c2ccc4ncnn4c2CN2CCNC(=O)C2)CCC3)n1		
136	11.6	Cc1cccc(-c2nn3c(c2-c2ccc4ncnn4c2/C=C/C(N)=O)CCCC3)n1	1580	
76.8		Cc1cccc(-c2nn3c(c2-c2ccc4ncnn4c2/C=C/C(=O)O)CCC3)n1		efflux ratio at 2.5 h, 2 µM (MDR1): 1.46; Papp A→B at 2.5 h, 2 µM [2]: 0.43 ×10⁻⁶ cm/s
		Cc1cccc(-c2nn3c(c2-c2ccnc4ccc(C(N)=O)cc24)CCC3)n1 [GALUNISERTIB]	783	
3460		Cc1cccc(-c2nn3c(c2-c2ccnc(-c4cccc(C(N)=O)c4)c2)CCC3)n1		
253	> 40	Cc1cccc(-c2nn(C)c(C)c2-c2ccc3ncnn3c2/C=C/C(N)=O)n1	> 10000	
3240		Cc1cc(C)nc(-c2nn3c(c2-c2ccc4ncnn4c2/C=C/C(N)=O)CCC3)c1		
